# Results reported in patent publication US11840686B2, “Modulation of prekallikrein (PKK) expression” (Ionis Pharmaceuticals, Inc., priority 2013, dated 2023).
# Strand notation (5' to 3'): a small letter for the sugar, then the base; units joined by * are phosphorothioate-linked, units joined directly phosphodiester-linked; [ ] holds rarer units or linkages, { } end groups; capitals alone tell only the bases. e = 2'-O-(2-methoxyethyl) (MOE); [5mC] = 5-methylcytosine; d = 2'-deoxy (DNA)
# Key:
# human PKK mRNA [1] = assay: Antisense inhibition of human PKK mRNA in HepaRG cells, 5,000 nM (Example 2); type: cell-based
# Outline: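 Percent inhibition of PKK mRNA is reported relative to untreated cells, after adjustment for total RNA by RIBOGREEN. Gapmers of 16–20 nucleosides with 2′-MOE wings were delivered at 5,000 nM by electroporation into HepaRG cells and left for roughly 24 hours before RNA isolation.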
# human PKK mRNA [2] = assay: Dose-dependent antisense inhibition of human PKK in HepaRG cells, 0.19-5.00 uM (Example 5); type: cell-based; conditions: for percent inhibition of PKK mRNA, 0.19 μM: 0.19 μM antisense oligonucleotide; for percent inhibition of PKK mRNA, 0.56 μM: 0.56 μM antisense oligonucleotide; for percent inhibition of PKK mRNA, 1.67 μM: 1.67 μM antisense oligonucleotide; for percent inhibition of PKK mRNA, 5.00 μM: 5.00 μM antisense oligonucleotide
# Outline: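 HepaRG cells (20,000/well) were electroporated with antisense oligonucleotide at 0.19, 0.56, 1.67 and 5.00 μM and treated for about 16 hours. PKK mRNA was quantified by qRT-PCR with primer probe set RTS3454, normalised to RIBOGREEN total RNA, and IC50 was derived per oligonucleotide.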
# [3] = Table 7, HepaRG cells, electroporation with 5,000 nM antisense oligonucleotide, approx. 24 hours, PKK mRNA by RT-PCR (RTS3454), relative to untreated control cells
# [4] = HepaRG cells, electroporation, approximately 16 hours, Table 36
# [5] = HepaRG cells, electroporation with 5,000 nM antisense oligonucleotide, approximately 24 hours, PKK mRNA by RT-PCR (RTS3454), relative to untreated control cells, Table 6 experiment
# [6] = HepaRG cells, electroporation, approximately 16 hours, Table 35
# [7] = 4 point dose response, HepaRG cells, Table 35
# [8] = HepaRG cells, electroporation, approximately 16 hours, Table 41
# [9] = 4 point dose response, HepaRG cells, Table 41
# [10] = Table 34, HepaRG, electroporation, ~16 h
# [11] = HepaRG cells, electroporation, approximately 16 hours, Table 40
# [12] = HepaRG cells, electroporation, approximately 16 hours, Table 39
# [13] = 4 point dose response, HepaRG cells, Table 39
substance,measurement,setting,value
547373 (eG*e[5mC]*eA*eG*eA*dT*dG*dG*dT*d[5mC]*d[5mC]*dG*dA*d[5mC]*dA*e[5mC]*eA*e[5mC]*eA*eA; antisense) [compound 547373],% inhibition,human PKK mRNA [1]; [3],90%
same,percent inhibition of PKK at 0.19 μM,human PKK mRNA [2]; [4],20%
same,percent inhibition of PKK at 0.56 μM,human PKK mRNA [2]; [4],7%
same,percent inhibition of PKK at 1.67 μM,human PKK mRNA [2]; [4],49%
same,percent inhibition of PKK at 5.00 μM,human PKK mRNA [2]; [4],86%
same,IC50,"human PKK mRNA [2]; 4 point dose response, HepaRG cells, Table 36",1100 nM
546190 (antisense e[5mC]*eT*e[5mC]*eT*e[5mC]*dA*dT*dA*dT*d[5mC]*dA*dA*d[5mC]*dT*d[5mC]*e[5mC]*eT*eT*eT*eA) [compound 546190],% inhibition,human PKK mRNA [1]; [5],92%
same,percent inhibition of PKK at 0.19 μM,human PKK mRNA [2]; [6],33%
same,percent inhibition of PKK at 0.56 μM,human PKK mRNA [2]; [6],65%
same,percent inhibition of PKK at 1.67 μM,human PKK mRNA [2]; [6],86%
same,IC50,human PKK mRNA [2]; [7],400 nM
same,"percent inhibition of PKK mRNA, 0.19 μM",human PKK mRNA [2]; HepaRG cells,21%
same,"percent inhibition of PKK mRNA, 0.56 μM",human PKK mRNA [2]; HepaRG cells,34%
same,"percent inhibition of PKK mRNA, 1.67 μM",human PKK mRNA [2]; HepaRG cells,76%
same,"percent inhibition of PKK mRNA, 5.00 μM",human PKK mRNA [2]; HepaRG cells,98%
same,IC50,"human PKK mRNA [2]; HepaRG cells, 0.19-5.00 μM",700 nM
547423 (e[5mC]*e[5mC]*e[5mC]*eT*eT*dG*dT*dG*dT*d[5mC]*d[5mC]*d[5mC]*dA*dT*dA*e[5mC]*eG*e[5mC]*eA*eA; antisense) [compound 547423],% inhibition,"human PKK mRNA [1]; Table 8, HepaRG cells, electroporation with 5,000 nM antisense oligonucleotide, approx. 24 hours, PKK mRNA by RT-PCR (RTS3454), relative to untreated control cells",95%
same,percent inhibition of PKK at 0.19 0μM,human PKK mRNA [2]; [8],78%
same,percent inhibition of PKK at 0.56 0μM,human PKK mRNA [2]; [8],92%
same,IC50,human PKK mRNA [2]; [9],< 200 nM
same,percent inhibition of PKK at 0.19 μM,human PKK mRNA [2]; [10],37%
same,percent inhibition of PKK at 0.56 μM,human PKK mRNA [2]; [10],50%
same,percent inhibition of PKK at 1.67 μM,human PKK mRNA [2]; [10],92%
same,percent inhibition of PKK at 5.00 μM,human PKK mRNA [2]; [10],90%
same,IC50,"human PKK mRNA [2]; Table 34, PKK mRNA, HepaRG, electroporation, ~16 h",400 nM
547340 (antisense e[5mC]*eT*e[5mC]*e[5mC]*eT*d[5mC]*dT*d[5mC]*dA*dT*dA*dT*d[5mC]*dA*dA*e[5mC]*eT*e[5mC]*e[5mC]*eT) [compound 547340],% inhibition,human PKK mRNA [1]; [5],93%
same,percent inhibition of PKK at 0.19 μM,human PKK mRNA [2]; [6],46%
same,percent inhibition of PKK at 0.56 μM,human PKK mRNA [2]; [6],79%
same,percent inhibition of PKK at 1.67 μM,human PKK mRNA [2]; [6],88%
same,percent inhibition of PKK at 0.19 0μM,human PKK mRNA [2]; [8],34%
same,percent inhibition of PKK at 0.56 0μM,human PKK mRNA [2]; [8],84%
same,percent inhibition of PKK at 1.67 1μM,"human PKK mRNA [2]; 1.67 1μM, HepaRG cells, electroporation, approximately 16 hours, Table 41",96%
same,IC50,human PKK mRNA [2]; [7],200 nM
same,IC50,human PKK mRNA [2]; [9],300 nM
547728 (eG*eA*eG*eA*eT*dT*dG*dG*dT*dG*dG*dT*dG*dG*dG*eT*eG*eG*e[5mC]*eA; antisense) [compound 547728],% inhibition,"human PKK mRNA [1]; HepaRG cells, 5,000 nM antisense oligonucleotide, 5-10-5 gapmers, Table 17",88%
same,percent inhibition of PKK at 0.19 μM,human PKK mRNA [2]; [11],0%
same,percent inhibition of PKK at 0.56 μM,human PKK mRNA [2]; [11],2%
same,percent inhibition of PKK at 1.67 μM,human PKK mRNA [2]; [11],16%
same,percent inhibition of PKK at 5.00 μM,human PKK mRNA [2]; [11],61%
same,IC50,"human PKK mRNA [2]; 4 point dose response, HepaRG cells, Table 40",4400 nM
546876 (eG*eT*e[5mC]*e[5mC]*eT*dA*dT*dA*dT*d[5mC]*dA*d[5mC]*dT*dG*dT*eA*e[5mC]*e[5mC]*eT*eG; antisense) [compound 546876],% inhibition,"human PKK mRNA [1]; human PKK mRNA in HepaRG cells, 5-10-5 gapmers, Table 14",87%
same,percent inhibition of PKK at 0.19 μM,human PKK mRNA [2]; [12],0%
same,percent inhibition of PKK at 0.56 μM,human PKK mRNA [2]; [12],50%
same,percent inhibition of PKK at 1.67 μM,human PKK mRNA [2]; [12],85%
same,percent inhibition of PKK at 5.00 μM,human PKK mRNA [2]; [12],95%
same,IC50,human PKK mRNA [2]; [13],800 nM
546248 (e[5mC]*e[5mC]*eT*e[5mC]*e[5mC]*dA*dA*dA*dG*dT*d[5mC]*dA*dA*d[5mC]*dT*e[5mC]*e[5mC]*e[5mC]*eG*eG; antisense) [compound 546248],% inhibition,human PKK mRNA [1]; [3],86%
same,percent inhibition of PKK at 0.19 μM,human PKK mRNA [2]; [12],25%
same,percent inhibition of PKK at 0.56 μM,human PKK mRNA [2]; [12],66%
same,percent inhibition of PKK at 1.67 μM,human PKK mRNA [2]; [12],87%
same,percent inhibition of PKK at 5.00 μM,human PKK mRNA [2]; [12],93%
same,IC50,human PKK mRNA [2]; [13],400 nM
same,"percent inhibition of PKK mRNA, 0.19 μM",human PKK mRNA [2]; HepaRG cells,0%
same,"percent inhibition of PKK mRNA, 0.56 μM",human PKK mRNA [2]; HepaRG cells,59%
same,"percent inhibition of PKK mRNA, 1.67 μM",human PKK mRNA [2]; HepaRG cells,73%
same,"percent inhibition of PKK mRNA, 5.00 μM",human PKK mRNA [2]; HepaRG cells,89%
same,IC50,"human PKK mRNA [2]; HepaRG cells, 0.19-5.00 μM",800 nM
